Target: Amine oxidase [flavin-containing] A (Rattus norvegicus) (UniProt P21396)
Assay: Inhibition of MAO-A activity

Sequence of Amine oxidase [flavin-containing] A (Rattus norvegicus) (P21396 whole entry, looked up): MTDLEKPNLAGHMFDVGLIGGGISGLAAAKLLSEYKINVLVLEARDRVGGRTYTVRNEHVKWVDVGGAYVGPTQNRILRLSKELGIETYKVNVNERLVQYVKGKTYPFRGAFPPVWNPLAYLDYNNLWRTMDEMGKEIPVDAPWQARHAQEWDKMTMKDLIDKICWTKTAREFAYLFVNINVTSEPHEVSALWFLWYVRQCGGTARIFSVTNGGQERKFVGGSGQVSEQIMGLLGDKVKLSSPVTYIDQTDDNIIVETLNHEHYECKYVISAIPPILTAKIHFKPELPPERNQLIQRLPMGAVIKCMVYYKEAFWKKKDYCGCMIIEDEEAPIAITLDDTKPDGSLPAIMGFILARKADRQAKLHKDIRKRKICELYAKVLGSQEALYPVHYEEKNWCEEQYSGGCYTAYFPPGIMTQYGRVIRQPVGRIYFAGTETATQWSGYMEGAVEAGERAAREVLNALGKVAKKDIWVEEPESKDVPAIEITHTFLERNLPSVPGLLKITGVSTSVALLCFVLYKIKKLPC

Row | IC50 | Compound
1 | > 200 µM | COc1cc(OC2CCCCC2=O)c2c(C)cc(=O)oc2c1 (stereo not given)
2 | 11.1 µM | COc1c(OC2CCCCC2=O)ccc2c(C)cc(=O)oc12 (stereo not given)
3 | 6.43 µM | COc1c(OCC(C)=O)ccc2cc(NC(C)=O)c(=O)oc12
4 | 7.24 µM | Cc1cc(=O)oc2cc3oc4ccccc4c3cc12
5 | 12.3 µM | Cc1coc2cc3oc(=O)c(NC(=O)CN)cc3cc12
6 | 43 µM | Cc1cc(=O)oc2cc(OC3CCCCC3=O)ccc12 (stereo not given)
7 | > 200 µM | CCN(CC)CCCOc1c2occc2cc2ccc(=O)oc12
8 | 65.2 µM | Cc1cc(=O)oc2cc3oc4c(c3cc12)CCCC4
9 | 21.4 µM | COc1cc(OC2CCCCC2=O)cc2oc(=O)cc(C)c12 (stereo not given)
10 | 21.7 µM | COc1c2oc(=O)c(N)cc2cc2c(C)coc12
11 | 0.04 µM | Cc1cc(=O)oc2cc(OC3CCCC3=O)ccc12 (stereo not given)
12 | 2.51 µM | NCCCOc1c2occc2cc2ccc(=O)oc12
13 | > 200 µM | COc1c(O)ccc2cc(N)c(=O)oc12
14 | 11.9 µM | Cc1cc(=O)oc2cc3oc4c(c3cc12)CCC4
15 | 85.1 µM | COc1c2occc2cc2ccc(=O)oc12 [METHOXSALEN]
